Measured values reported in patent EP3656762A1, “COMPOUNDS FOR THE TREATMENT OF NF-KB-RELATED DISEASES OR DISORDERS” (Instituto Biomar S.A., priority 2018, dated 2020).

Test system: Experimental Autoimmune Encephalomyelitis (EAE)
Conditions: MOG35-55 induced EAE; i.p. daily from day 0; Compound 1 3 mg/kg, Cyclosporine A 10 mg/kg; score 0-8; mean ± SEM

In the case of Cyclosporine A, the “MaxES (Maximum EAE score)” value is reported as 3.0±0.1.
